# According to patent US20060035925A1, “SUBSTITUTED 4H-CHROMENES AND ANALOGS AS ACTIVATORS OF CASPASES AND INDUCERS OF APOPTOSIS AND THE USE THEREOF” (Cytovia, Inc., priority 1999, published 2006):
# Like-named read-outs stand apart in the source and are kept apart here.
# Assays:
# [1] = system: Human breast cancer cell line T-47D; assay: Caspase cascade activation assay (N-(Ac-DEVD)-N'-ethoxycarbonyl-R110 fluorogenic substrate) in T-47D cells; format: cell-based; settings: for Caspase activity (Ratio) T-47D: 24 h incubation with compound, ratio of net RFU (T=3 h) of test compound to control; for EC50: 24 h incubation, sigmoidal dose-response, read-out: Caspase potency EC50 (nM) T-47D
# Description: (§1) Human breast cancer cell lines T-47D and ZR-75-1 were grown according to media component mixtures designated by American Type Culture Collection +10% FCS (Invitrogen Corporation), in a 5% CO2-95% humidity incubator at 37° C. T-47D and ZR-75-1 cells were maintained at a cell density between 30 and 80% confluency at a cell density of 0.1 to 0.6×10^6 cells/ml. Cells were harvested at 600×g and resuspended at 0.65×10^6 cells/mL into appropriate media +10% FCS. An aliquot of 45 μl of cells was added to a well of a 96-well microtiter plate containing 5 μl of a 10% DMSO in RPMI-1640 media solution containing 0.16 to 10 μM of 2-amino-3-cyano-4-(3-bromo-4,5-dimethoxyphenyl)-4H-indolo[7,6-b]pyran (Example 42) or other test compound (0.016 to 1 μM final). An aliquot of 45 μl of cells was added to a well of a 96-well microtiter plate containing 5 μl of a 10% DMSO in RPMI-1640 media solution without test compound as the control sample. The samples were mixed by agitation and then incubated at 37° C. for 24 h in a 5% CO2-95% humidity incubator. After incubation, the samples were removed from the incubator and 50 μl of a solution containing 20 μM of N-(Ac-DEVD)-N′-ethoxycarbonyl-R110 (SEQ ID NO:1) fluorogenic substrate (Cytovia, Inc.; WO99/18856), 20% sucrose (Sigma), 20 mM DTT (Sigma), 200 mM NaCl (Sigma), 40 mM Na PIPES buffer pH 7.2 (Sigma), and 500 μg/ml lysolecithin (Calbiochem) was added. The samples were mixed by agitation and incubated at room temperature. Using a fluorescent plate reader (Model 1420 Wallac Instruments), an initial reading (T=0) was made approximately 1-2 min after addition of the substrate solution, employing excitation at 485 nm and emission at 530 nm, to determine the background fluorescence of the control sample. After the 3 h incubation, the samples were read for fluorescence as above (T=3 h).
# (§2) The Relative Fluorescence Unit values (RFU) were used to calculate the sample readings as follows: RFU(T=3h)−Control RFU(T=0)=Net RFU(T=3h)
# (§3) The activity of caspase cascade activation was determined by the ratio of the net RFU value for 2-amino-3-cyano-4-(3-bromo-4,5-dimethoxyphenyl)-4H-indolo[7,6-b]pyran or other test compound to that of control samples. The EC50 (nM) was determined by a sigmoidal dose-response calculation (Prism 2.0, GraphPad Software Inc.).
# [2] = system: Human breast cancer cell line ZR-75-1; assay: Caspase cascade activation assay (N-(Ac-DEVD)-N'-ethoxycarbonyl-R110 fluorogenic substrate) in ZR-75-1 cells; format: cell-based; settings: ZR-75-1 cells; for EC50: 24 h incubation, sigmoidal dose-response, read-out: Caspase potency EC50 (nM) ZR-75-1; for Caspase activity (Ratio) ZR-75-1: 24 h incubation with compound, ratio of net RFU (T=3 h) of test compound to control
# Description: as §1, §2, §3
Compound,Caspase activity (Ratio) T-47D [1],"EC50 ([1]; Homo sapiens, T47D, 24 h) [nM]","EC50 ([2]; Homo sapiens, ZR-75-1, 24 h) [nM]",Caspase activity (Ratio) ZR-75-1 [2],EC50 [1] [nM],EC50 [2] [nM]
"COc1ccc2c(c1)OC(N)=C(C#N)C2c1cncc(Br)c1 (stereo not shown) [Example 33, 2-Amino-3-cyano-4-(5-bromo-3-pyridyl)-7-methoxy-4H-chromene]",7.0,7,7,10.4,,
"Cc1cncc(C2C(C#N)=C(N)Oc3cc(N)ccc32)c1 (stereo not shown) [Example 34, 2,7-Diamino-3-cyano-4-(5-methyl-3-pyridyl)-4H-chromene]",4.7,107,43,5.6,,
"Cc1cncc(C2C3=CC=C4N=CC=C4C3OC(N)=C2C#N)c1 (stereo not shown) [Example 35, 2-Amino-3-cyano-4-(5-methyl-3-pyridyl)-4H-indolo[4,5-b]pyran]",6.9,3,8,5.5,,
"N#CC1=C(N)OC2C3=CC=NC3=CC=C2C1c1cncc(Br)c1 (stereo not shown) [Example 36, 2-Amino-3-cyano-4-(5-bromo-3-pyridyl)-4H-indolo[4,5-b]pyran]",5.9,10,3,2.9,,
"N#CC1=C(N)Oc2cc(N)ccc2C1c1cncc(Br)c1 (stereo not shown) [Example 37, 2,7-Diamino-3-cyano-4-(5-bromo-3-pyridyl)-4H-chromene]",6.4,57,31,3.4,,
"COc1cncc(C2C(C#N)=C(N)Oc3cc(N)ccc32)c1 (stereo not shown) [Example 39, 2,7-Diamino-3-cyano-4-(5-methoxy-3-pyridyl)-4H-chromene]",8.4,283,177,14,,
"COc1cncc(C2C(C#N)=C(N)Oc3cc(OC)ccc32)c1 (stereo not shown) [Example 40, 2-Amino-3-cyano-7-methoxy-4-(5-methoxy-pyridin-3-yl)-4H-chromene]",7.9,27.4,16.9,8.9,,
"COc1cncc(C2C3=CC=C4N=CC=C4C3OC(N)=C2C#N)c1 (stereo not shown) [Example 41, 2-Amino-3-cyano-4-(5-methoxy-pyridin-3-yl)-4H-indolo[4,5-b]pyran]",6.8,13.9,6.6,7.2,,
"COc1cc(C2C3=CC=C4C=CN=C4C3OC(N)=C2C#N)cc(Br)c1OC (stereo not shown) [Example 42, 2-Amino-3-cyano-4-(3-bromo-4,5-dimethoxyphenyl)-4H-indolo[7,6-b]pyran]",7.6,30,25,13.1,,
"COc1cccc(C2C3=CC=C4C=CN=C4C3OC(N)=C2C#N)c1 (stereo not shown) [Example 43, 2-Amino-3-cyano-4-(3-methoxyphenyl)-4H-indolo[7,6-b]pyran]",6.5,143,81.9,5.9,,
"COc1cccc(C2C(C#N)=C(N)Oc3c2ccc(N)c3N)c1 (stereo not shown) [Example 44, 3-Cyano-2,7,8-triamino-4-(3-methoxyphenyl)-4H-chromene]",7.0,256,138,9.6,,
"COc1cc(C2C(C#N)=C(N)Oc3c2ccc(N)c3N)cc(Br)c1OC (stereo not shown) [Example 45, 3-Cyano-2,7,8-triamino-4-(3-bromo-4,5-dimethoxyphenyl)-4H-chromene]",6.0,41.8,35.4,11.9,,
"COc1cccc(C2C3=CC=C4N=CC=C4C3OC(N)=C2C#N)c1 (stereo not shown) [Example 46, 2-Amino-3-cyano-4-(3-methoxyphenyl)-4H-indolo[4,5-b]pyran]",6.4,62,26,7.1,61.8,26.3
"Cc1cc2c(cc1Cl)C(c1ccccc1)C(C#N)=C(N)O2 (stereo not shown) [Example 47, 2-Amino-6-chloro-3-cyano-7-methyl-4-phenyl-4H-chromene]",1.9,> 1000,552,7.3,,
"COc1cc(C2C(C#N)=C(N)Oc3cc(N(C)C)ccc32)cc(Br)c1O (stereo not shown) [Example 48, 2-Amino-4-(3-bromo-4-hydroxy-5-methoxyphenyl)-3-cyano-7-dimethylamino-4H-chromene]",10.5,36.8,23.8,6.1,,
"COc1cc(C2C(C#N)=C(N)Oc3cc(N)ccc32)cc(Br)c1O (stereo not shown) [Example 49, 3-Cyano-4-(3-bromo-4-hydroxy-5-methoxyphenyl)-2,7-diamino-4H-chromene]",10.1,67.7,35.9,5.8,,
"COc1cc(C2C3=CC=C4N=CC=C4C3OC(N)=C2C#N)cc(Br)c1O (stereo not shown) [Example 50, 2-Amino-4-(3-bromo-4-hydroxy-5-methoxyphenyl)-3-cyano-4H-indolo[4,5-b]pyran]",10.1,16.5,14.8,10.6,,
"COc1cc(C2C3=CC=C4C=CN=C4C3OC(N)=C2C#N)cc(Br)c1O (stereo not shown) [Example 51, 2-Amino-4-(3-bromo-4-hydroxy-5-methoxyphenyl)-3-cyano-4H-indolo[7,6-b]pyran]",11.5,36.8,18.6,6.7,,
"COc1cc(OC)cc(C2C3=CC=C4C=CN=C4C3OC(N)=C2C#N)c1 (stereo not shown) [Example 52, 2-Amino-3-cyano-4-(3,5-dimethoxyphenyl)-4H-indolo[7,6-b]pyran]",11.8,26,22.7,9.9,,
"N#CC1=C(N)OC2C(=CC=C3C=CN=C32)C1c1cccc(C#N)c1 (stereo not shown) [Example 53, 2-Amino-3-cyano-4-(3-cyano-phenyl)-4H-indolo[7,6-b]pyran]",10.1,79.7,26.4,7.0,,
"N#CC1=C(N)Oc2c(ccc3cc[nH]c23)C1c1cccc(C(F)(F)F)c1 (stereo not shown) [Example 54, 2-Amino-3-cyano-4-(3-trifluromethyl-phenyl)-4H-indolo[7,6-b]pyran]",7.3,,,7.5,314,216
"Cc1cncc(C2C3=CC=C4C=CN=C4C3OC(N)=C2C#N)c1 (stereo not shown) [Example 55, 2-Amino-3-cyano-4-(5-methyl-pyridin-3-yl)-4H-indolo[7,6-b]pyran]",7.4,15.3,4,7.2,,
"N#CC1=C(N)OC2C3=CC=NC3=CC=C2C1c1ccccc1 (stereo not shown) [Example 56, 2-Amino-3-cyano-4-phenyl-4H-indolo[4,5-b]pyran]",8.3,252,157,7.7,,
"N#CC1=C(N)OC2C3=CC=NC3=CC=C2C1c1cncc(C#N)c1 (stereo not shown) [Example 57, 2-Amino-3-cyano-4-(5-cyano-pyridin-3-yl)-4H-indolo[4,5-b]pyran]",7.2,58,27.9,7.3,,
"Cc1cncc(C2C3=CC=C4N=CC=C4C3OC(N)=C2C#N)n1 (stereo not shown) [Example 58, 2-Amino-3-cyano-4-(6-methyl-pyrazin-2-yl)-4H-indolo[4,5-b]pyran]",4.1,2900,1630,7.0,,
"N#CC1=C(N)OC2C3=CC=NC3=CC=C2C1c1cnc2ccccc2n1 (stereo not shown) [Example 59, 2-Amino-3-cyano-4-(quinoxalin-2-yl)-4H-indolo[4,5-b]pyran]",1.1,> 10000,> 10000,1.2,,
